From patent US11242365B2, “FOXM1-derived peptide, and vaccine including same” (OncoTherapy Science, Inc., priority 2015, dated 2022)
Entries after “also recorded” stand apart in the source; their conditions may differ.

Experiments:
[1] = test system: target cells (C1R-A33) pulsed with peptide; test: IFN-gamma ELISA of CTL lines (HLA-A*33:03); type: cell-based, human; conditions: CTL line against peptide-pulsed C1R-A33
Description: CTLs were propagated using methods similar to those reported by Riddell et al. (Walter E A et al., N Engl J Med 1995, 333(16): 1038-44; Riddell S R et al., Nat Med 1996, 2(2): 216-23). The CTLs were cultured in 25 ml 5% ABS/AIM-V medium together with two types of Mitomycin C-treated human B lymphoblastoid cell lines (5×10^6 cells/25 ml medium each) and an anti-CD3 antibody (final concentration: 40 ng/ml). On the day after beginning of the culturing, IL-2 (final concentration: 120 IU/ml) was added to the culture. On days 5, 8 and 11, the medium was changed to a 5% ABS/AIM-V medium containing IL-2 (final concentration: 30 IU/ml) (Tanaka H et al., Br J Cancer 2001, 84(1): 94-9; Umano Y et al., Br J Cancer 2001, 84(8): 1052-7; Uchida N et al., Clin Cancer Res 2004, 10(24): 8577-86; Suda T et al., Cancer Sci 2006, 97(5): 411-9; Watanabe T et al., Cancer Sci 2005, 96(8): 498-506).
(§1) Peptide-pulsed C1R-A33 (1×10^4 cells/well) was prepared as the target cell. The IFN-gamma ELISPOT assay and IFN-gamma ELISA were performed according to the assay kit manufacturer's manual.

[2] = test system: target cells (C1R-A33) pulsed with peptide; test: IFN-gamma ELISA of CTL clones established by limiting dilution (HLA-A*33:03); type: cell-based, human; conditions: CTL clone against peptide-pulsed C1R-A33
Description: (§2) After induction of CTLs in vitro, the CTLs were seeded onto 96-well round-bottomed microplates (Nalge Nunc International) at 1 cell/well or 10 cells/well. The CTLs were cultured with two types of Mitomycin C-treated human B lymphoblastoid cell lines (1×10^4 cells/well each) in a total of 150 micro-l/well 5% ABS/AIM-V medium with an anti-CD3 antibody (final concentration: 30 ng/ml) and IL-2 (final concentration: 125 IU/ml). Ten days later, 50 micro-l 5% ABS/AIM-V medium containing 500 IU/ml IL-2 was added to the culture.
as §1

peptide-pulsed C1R-A33 = test: In vitro CTL induction, IFN-gamma ELISPOT assay (HLA-A*33:03); type: cell-based, human; conditions: CD8 positive T cells of HLA-A*33:03-positive donors after three stimulations with peptide-pulsed DCs; peptide-pulsed vs non-pulsed C1R-A33
Description: (§3) Monocyte-derived dendritic cells (DCs) were used as the antigen-presenting cell to induce a specific cytotoxic T lymphocyte (CTL) response against peptides presented on human leukocyte antigens (HLAs). As already reported in literatures, DCs were generated in vitro (Nakahara S et al., Cancer Res 2003, 63(14): 4112-8). Specifically, peripheral-blood mononuclear cells (PBMCs) collected from healthy volunteers (HLA-A*33:03-positive) with the Ficoll-Paque plus solution (Pharmacia) were seeded in plastic tissue culture dishes (Corning) to let the monocytes in the PBMCs adhere to the dishes. This was cultured in the presence of 1000 IU/ml granulocyte macrophage colony-stimulating factor (R&D System) and 1000 IU/ml interleukin (IL)-4 (R&D System) for seven days. An AIM-V medium (Invitrogen) containing 5% inactivated AB-type serum (ABS) was used as the medium. DCs that were induced to differentiate from monocytes using the cytokines were pulsed with 20 micro-g/ml of each synthesized peptide (37 degrees C., three hours). Peptide pulsing was carried out in an AIM-V medium containing 3 micro-g/ml beta 2-microglobulin. These peptide-pulsed DCs were inactivated by X-ray irradiation (20 Gy), mixed in a 1:20 ratio with autologous CD8 positive T cells obtained by positive selection using the CD8 Positive Isolation Kit (Invitrogen) (1.5×10^4 DCs and 3×10^5 CD8 positive T cells), and cultured in a 48-well plate (Corning). Each well contained 0.5 ml of the 5% ABS/AIM-V medium, and IL-7 (R&D System) was added thereto (final concentration: 10 ng/ml). Two days after the start of the culture, IL-2 (Novartis) was added (final concentration: 20 IU/ml). On day 7 and day 14 of culture, the CD8 positive T cells were further stimulated with peptide-pulsed DCs. The DCs were prepared at the time of use by the same method as above. […]

peptide-pulsed C1R-A01 = test: In vitro CTL induction, IFN-gamma ELISPOT assay (HLA-A*01:01); type: cell-based, human; conditions: CD8 positive T cells of HLA-A*01:01-positive donors after three stimulations with peptide-pulsed DCs; peptide-pulsed vs non-pulsed C1R-A01
Description: as §3, with “(CTL)” for “(CTL) response”, “(HLA-A*01:01-positive)” for “(HLA-A*33:03-positive) with the Ficoll-Paque plus solution (Pharmacia)”, “by” for “by positive selection”, “(Corning).” for “(Corning). Each well contained 0.5 ml of the 5% ABS/AIM-V medium, and IL-7 (R&D System) was added thereto (final concentration: 10 ng/ml). Two days after the start of the culture, IL-2 (Novartis) was added (final concentration: 20 IU/ml). On day 7 and day 14 of culture, the CD8 positive T cells were further stimulated with peptide-pulsed DCs. The DCs were prepared at the time of use by the same method as above.”

[3] = test system: target cells (C1R-A01) pulsed with peptide; test: IFN-gamma ELISA of CTL clones established by limiting dilution (HLA-A*01:01); type: cell-based, human; conditions: CTL clone against peptide-pulsed C1R-A01; listed as FOXM1-A01-9-233
Description: as §2
Peptide-pulsed C1R-A01 (1×10^4 cells/well) was prepared as the target cell. The IFN-gamma ELISPOT assay and IFN-gamma ELISA were performed according to the assay kit manufacturer's manual.

[4] = test system: COS7 cells expressing FOXM1 and HLA-A*33:03; test: IFN-gamma production of CTL clone against target cells expressing FOXM1 and HLA-A*33:03; type: cell-based, African green monkey
From the text: A cDNA encoding the FOXM1 or HLA-A*33:03 gene was amplified by PCR. The PCR-amplified product was each incorporated into an expression vector. Either or both of the FOXM1 gene-expressing vector and the HLA-A*33:03 gene-expressing vector were introduced into COS7 cells, which is a cell line negative for HLA, using Lipofectamine 2000 (Invitrogen). On the day after gene introduction, COS7 cells were detached and harvested using versene (Invitrogen), and used as the target cell for confirmation of IFN-gamma production (5×10^4 cells/well).
IFN-gamma production of the FOXM1-A33-9-308 (SEQ ID NO: 2)-specific CTL clone against target cells expressing FOXM1 and HLA-A*33:03 was investigated. COS7 cells expressing both FOXM1 and HLA-A*33:03 were prepared as the target cell. COS7 cells expressing either one of FOXM1 and HLA-A*33:03 were prepared as the negative control cell. […] This clearly proves that FOXM1-A33-9-308 (SEQ ID NO: 2) is a peptide generated by antigen processing, and is presented on the cell surface with the HLA-A*33:03 molecule and recognized by CTLs.

AARDVNLPR (a peptide derived from FOXM1) [SEQ ID NO: 7]
IFN-gamma production by the CTL line (ELISA) ([1]; listed as FOXM1-A33-9-146): observed; also recorded: CTL lines that produce IFN-gamma in a peptide-specific manner were established | peptide-specific IFN-gamma production of CTL clone (ELISA) ([2]; listed as FOXM1-A33-9-146): showed a peptide-specific IFN-gamma production

ASLMSSELAR (a peptide derived from FOXM1) [SEQ ID NO: 46]
peptide-specific IFN-gamma production (ELISPOT) (peptide-pulsed C1R-A33): observed

KTELPLGARR (a peptide derived from FOXM1) [SEQ ID NO: 61]
peptide-specific IFN-gamma production (ELISPOT) (peptide-pulsed C1R-A01): observed

MSSELARHSK (a peptide derived from FOXM1) [SEQ ID NO: 39]
IFN-gamma production by the CTL line (ELISA) ([1]; listed as FOXM1-A33-10-391): observed; also recorded: CTL lines that produce IFN-gamma in a peptide-specific manner were established

NLSLHDMFVR (a peptide derived from FOXM1) [SEQ ID NO: 25]
peptide-specific IFN-gamma production (ELISPOT) (peptide-pulsed C1R-A33): not observed

SLSNIQWLR (a peptide derived from FOXM1) [SEQ ID NO: 1]
peptide-specific IFN-gamma production (ELISPOT) (peptide-pulsed C1R-A33): observed

VSERPPYSY (a peptide derived from FOXM1) [SEQ ID NO: 48]
peptide-specific IFN-gamma production of CTL clone (ELISA) [3]: showed a peptide-specific IFN-gamma production

WIEDHFPYFK (a peptide derived from FOXM1) [SEQ ID NO: 42]
IFN-gamma production by the CTL line (ELISA) ([1]; listed as FOXM1-A33-10-265): observed; also recorded: CTL lines that produce IFN-gamma in a peptide-specific manner were established | peptide-specific IFN-gamma production (ELISPOT) (peptide-pulsed C1R-A01): not observed

WTIHPSANR (a peptide derived from FOXM1) [SEQ ID NO: 2]
IFN-gamma production by the CTL line (ELISA) ([1]; listed as FOXM1-A33-9-308): observed; also recorded: CTL lines that produce IFN-gamma in a peptide-specific manner were established | peptide-specific IFN-gamma production of CTL clone (ELISA) ([2]; listed as FOXM1-A33-9-308): showed a peptide-specific IFN-gamma production | IFN-gamma production of peptide-specific CTL clone ([4]; COS7 cells expressing both FOXM1 and HLA-A*33:03): showed IFN-gamma production | IFN-gamma production of peptide-specific CTL clone ([4]; negative control: COS7 cells expressing either one of FOXM1 and HLA-A*33:03, listed as FOXM1-A33-9-308): a significant IFN-gamma production was not observed; also recorded: a significant IFN-gamma production was not shown
